Measurements taken from patent publication US20160115540A1, “PRODRUGS AND DRUGS” (Biogen MA Inc., priority 2013, published 2016).
Counter-ions that a name gives are not always drawn.

Test system: jejunum
Experiment: Transcriptional profiling on Affymetrix GeneChips, single dose, naïve mice: jejunum
Assay type: in vivo, C57BL/6 mice
Procedure: Treated mice were sacrificed at 2, 7, or 12 hours. Tissues (liver, spleen, kidney, jejunum, cortex, hippocampus, striatum and whole blood) were collected and analyzed by transcriptional profiling on mouse Affymetrix GeneChips.
Tissues (liver, spleen, kidney, jejunum, cortex, hippocampus, striatum and whole blood) were collected and analyzed by transcriptional profiling on mouse Affymetrix GeneChips.
Animals were exposed to CO2 and whole blood collected via cardiac puncture. Two 100 μl aliquots of whole blood were collected in 1.5 mL microcentrifuge tubes and snap frozen in liquid nitrogen. Peripheral (liver, spleen, kidney and jejunum) and CNS brain (cerebellum, hippocampus, striatum and cortex) tissues were harvested and snap frozen in liquid nitrogen, with special care taken to collect tissues of similar size and from the same location. All samples were stored at −80° C. until RNA extraction was conducted.
For RNA preparation, frozen tissues were placed in 2 mL RNAse-free 96-well blocks with 1.5 mL QIAzol Lysis Reagent (QIAgen) and a 3.2 mm stainless steel bead (BioSpec Products, Bartlesville, Okla.). Tissues were disrupted for four cycles of 45 seconds in a Mini-Beadbeater (Biospec Products). RNA was extracted in chloroform and the aqueous phase was mixed with an equal volume of 70% ethanol. Extracted RNA was applied to RNeasy 96 plates and purified by the spin method according to the manufacturer's protocol (RNeasy 96 Universal Tissue Protocol, QIAgen, Hilden Germany).
Automated sample amplifications and biotin labelings were carried out using the NuGEN Ovation RNA Amplification system V2 (Cat #3100), Ovation WB reagent (Cat #1300) and Encore Biotin module (Cat #4200) (NuGEN Technologies, Inc, San Carlos, Calif.) according to manufacturer's recommendations using an Arrayplex automated liquid handler (Beckman Coulter, Indianapolis, Ind.). Two micrograms of biotin labeled sscDNA probe were hybridized to Affymetrix GeneChip Affymetrix HT_MG-430_PM plate arrays with modified conditions as described in Allaire et al. Washing and staining of the hybridized arrays were completed as described in the GeneChip Expression analysis technical manual for HT plate arrays using the Genechip® Array Station (Affymetrix, Santa Clara, Calif.) with modifications as described in Allaire et al. The processed GeneChip® plate arrays were scanned using GeneTitan scanner (Affymetrix, Santa Clara, Calif.).
Affymetrix scans were subject to quality control (QC) measures. These tests included a visual inspection of the distribution of raw signal intensities and an assessment of RNA degradation, relative log expression (RLE), and normalized unsealed standard error (NUSE). All sample scans that passed these QC metrics were included in the analysis.
All CEL files were subjected to GC-content-based Robust Multi-array Average (GCRMA) normalization (version 2.20.0) (Irizarry R A, et al. Nucleic Acids Res 2003; 31:e15; Li C, et al. Genome Biol 2001; 2:[…]0032). Expression levels were log (base 2) transformed.
All calculations and analyses were carried out using R (version 2.11.1) and Bioconductor computational tools (Gentleman R. Springer Science+Business Media 2005).

[1] = 100DMF-vs-Veh or 100MMF-vs-Veh, 12 h

COC(=O)/C=C/C(=O)OC [DMF, dimethyl fumarate]
FC Lrp8 (1440882_PM_at) (100DMF-vs-100MMF, 2 h): −1.69
FC Alb (1425260_PM_at) (100DMF-vs-100MMF, 7 h): 9.97
FC G6pc (1417880_PM_at) (100DMF-vs-100MMF, 7 h): −2.45
FC Abcc3 (1428988_PM_at) [1]: 2.02
FC Acsm5 (1437662_PM_at) [1]: 1.86
FC Akr1b8 (1448894_PM_at) [1]: 17.57
FC Akr1c12 (1450455_PM_s_at) [1]: 1.72
FC Akr1c19 (1455454_PM_at) [1]: 3.20
FC Blvrb (1451386_PM_at) [1]: 1.53
FC Cbr3 (1427912_PM_at) [1]: 25.95
FC Ces1e (1419510_PM_at) [1]: 2.70
FC Ces1f (1424266_PM_s_at) [1]: 6.17
FC Ces1g (1449486_PM_at) [1]: 7.40
FC G6pd2 (1422327_PM_s_at) [1]: 1.74
FC Gpx2 (1449279_PM_at) [1]: 1.67
FC Gsr (1421816_PM_at) [1]: 2.20
FC Gss (1441931_PM_x_at) [1]: 1.53
FC Gsta2 (1421040_PM_a_at) [1]: 5.65
FC Gsta2 (1421041_PM_s_at) [1]: 2.04
FC Gsta3 (1423436_PM_at) [1]: 10.36
FC Gsta3 (1423437_PM_at) [1]: 7.86
FC Gstm1 (1425627_PM_x_at) [1]: 4.63
FC Gstm1 (1448330_PM_at) [1]: 4.15
FC Gstm3 (1427473_PM_at) [1]: 2.03
FC Gstm3 (1427474_PM_s_at) [1]: 1.57
FC Gstm4 (1424835_PM_at) [1]: 5.03
FC Gstm6 (1422072_PM_a_at) [1]: 1.95
FC Nqo1 (1423627_PM_at) [1]: 2.30
FC Pir (1429001_PM_at) [1]: 3.79
FC Setd4 (1425239_PM_at) [1]: 1.66
FC Setd4 (1460373_PM_a_at) [1]: 1.52
FC Slc5a4b (1422757_PM_at) [1]: 2.21
FC Ugt2b5 (1419622_PM_at) [1]: 4.92
FC Ugt2b35 (1439624_PM_at) [1]: 2.37
FC Ugt2b36 (1455595_PM_at) [1]: 2.94
Number of genes, DMF Only / MMF Only (Jejunum): 9
Akr1c13 (1418672_PM_at) differential expression (Jejunum, 2 hr): 1.62
Areg (1421134_PM_at) differential expression (Jejunum, 2 hr): 3.58
B3galt5 (1428397_PM_at) differential expression (Jejunum, 2 hr): −2.77
Cbr1 (1460196_PM_at) differential expression (Jejunum, 2 hr): 1.55
Ces1e (1419510_PM_at) differential expression (Jejunum, 2 hr): 1.85
Dnase2a (1430135_PM_at) differential expression (Jejunum, 2 hr): 1.77
Dppa5a (1416552_PM_at) differential expression (Jejunum, 2 hr): 3.07
Dusp4 (1428834_PM_at) differential expression (Jejunum, 2 hr): 1.51
Entpd5 (1433763_PM_at) differential expression (Jejunum, 2 hr): 1.53
Ereg (1419431_PM_at) differential expression (Jejunum, 2 hr): 2.50
Ero1l (1419030_PM_at) differential expression (Jejunum, 2 hr): 1.92
Esd (1441604_PM_at) differential expression (Jejunum, 2 hr): 1.71
Fam13a (1456611_PM_at) differential expression (Jejunum, 2 hr): 1.54
Gclc (1424296_PM_at) differential expression (Jejunum, 2 hr): 4.25
Gsr (1421816_PM_at) differential expression (Jejunum, 2 hr): 2.23
Gss (1441931_PM_x_at) differential expression (Jejunum, 2 hr): 1.95
Gsta3 (1423436_PM_at) differential expression (Jejunum, 2 hr): 4.03
Gsta4 (1416368_PM_at) differential expression (Jejunum, 2 hr): 1.72
Gstm1 (1416416_PM_x_at) differential expression (Jejunum, 2 hr): 2.30
Mafg (1448916_PM_at) differential expression (Jejunum, 2 hr): 2.20
Nos2 (1420393_PM_at) differential expression (Jejunum, 2 hr): −2.39
Nqo1 (1423627_PM_at) differential expression (Jejunum, 2 hr): 2.16
Osgin1 (1424022_PM_at) differential expression (Jejunum, 2 hr): 2.08
Pgm2 (1437240_PM_at) differential expression (Jejunum, 2 hr): 2.15
Prss8 (1418320_PM_at) differential expression (Jejunum, 2 hr): 2.60
Ptk6 (1442923_PM_at) differential expression (Jejunum, 2 hr): −2.42
Setd4 (1435405_PM_at) differential expression (Jejunum, 2 hr): 1.91
Slc35e3 (1428805_PM_at) differential expression (Jejunum, 2 hr): 1.53
Slc40a1 (1417061_PM_at) differential expression (Jejunum, 2 hr): 2.33
Srr (1453421_PM_at) differential expression (Jejunum, 2 hr): 1.99
Srxn1 (1425351_PM_at) differential expression (Jejunum, 2 hr): 1.71
Tifa (1426501_PM_a_at) differential expression (Jejunum, 2 hr): −2.43
Tox3 (1436600_PM_at) differential expression (Jejunum, 2 hr): 1.70
Tsku (1440230_PM_at) differential expression (Jejunum, 2 hr): 1.61
Ugt2b5 (1419622_PM_at) differential expression (Jejunum, 2 hr): 3.40
Ugt2b36 (1455595_PM_at) differential expression (Jejunum, 2 hr): 2.07
Unc5c1 (1429950_PM_at) differential expression (Jejunum, 2 hr): −1.53
Abcc3 (1428988_PM_at) differential expression (Jejunum, 7 hr): 1.88
Acsm5 (1437662_PM_at) differential expression (Jejunum, 7 hr): 1.60
Akr1c13 (1418672_PM_at) differential expression (Jejunum, 7 hr): 1.61
Cbr1 (1460196_PM_at) differential expression (Jejunum, 7 hr): 1.65
Ces1e (1419510_PM_at) differential expression (Jejunum, 7 hr): 2.10
Ddc (1426215_PM_at) differential expression (Jejunum, 7 hr): 1.74
G6pd2 /// G6pdx (1422327_PM_s_at) differential expression (Jejunum, 7 hr): 1.82
G6pdx (1448354_PM_at) differential expression (Jejunum, 7 hr): 1.54
Gclc (1424296_PM_at) differential expression (Jejunum, 7 hr): 2.06
Gm3776 /// Gsta1 /// Gsta2 (1421041_PM_s_at) differential expression (Jejunum, 7 hr): 1.72
Gsr (1421816_PM_at) differential expression (Jejunum, 7 hr): 2.83
Gss (1441931_PM_x_at) differential expression (Jejunum, 7 hr): 1.97
Gsta3 (1423436_PM_at) differential expression (Jejunum, 7 hr): 4.27
Gsta4 (1416368_PM_at) differential expression (Jejunum, 7 hr): 2.09
Gstm1 (1416416_PM_x_at) differential expression (Jejunum, 7 hr): 3.19
Gstm2 (1416411_PM_at) differential expression (Jejunum, 7 hr): 1.58
Gstm4 (1424835_PM_at) differential expression (Jejunum, 7 hr): 3.83
Gstm6 (1422072_PM_a_at) differential expression (Jejunum, 7 hr): 1.94
Htatip2 (1451814_PM_a_at) differential expression (Jejunum, 7 hr): 1.51
Nqo1 (1423627_PM_at) differential expression (Jejunum, 7 hr): 2.31
Pir (1429001_PM_at) differential expression (Jejunum, 7 hr): 3.79
Setd4 (1435405_PM_at) differential expression (Jejunum, 7 hr): 1.90
Slc5a4b (1422757_PM_at) differential expression (Jejunum, 7 hr): 1.67
Txnrd1 (1424487_PM_x_at) differential expression (Jejunum, 7 hr): 1.60
Ugt2b5 (1419622_PM_at) differential expression (Jejunum, 7 hr): 3.42
Ugt2b36 (1455595_PM_at) differential expression (Jejunum, 7 hr): 2.23
Abcc3 (1428988_PM_at) differential expression (Jejunum, 12 hr): 2.02
Acsm5 (1437662_PM_at) differential expression (Jejunum, 12 hr): 1.86
Akr1c12 /// Akr1c13 (1450455_PM_s_at) differential expression (Jejunum, 12 hr): 1.72
Aldh1a7 (1418601_PM_at) differential expression (Jejunum, 12 hr): 1.65
Blvrb (1451386_PM_at) differential expression (Jejunum, 12 hr): 1.53
Ces1e (1419510_PM_at) differential expression (Jejunum, 12 hr): 2.70
G6pd2 /// G6pdx (1422327_PM_s_at) differential expression (Jejunum, 12 hr): 1.74
Gm3776 /// Gsta1 /// Gsta2 (1421041_PM_s_at) differential expression (Jejunum, 12 hr): 2.04
Gpx2 (1449279_PM_at) differential expression (Jejunum, 12 hr): 1.67
Gsr (1421816_PM_at) differential expression (Jejunum, 12 hr): 2.20
Gss (1441931_PM_x_at) differential expression (Jejunum, 12 hr): 1.53
Gsta3 (1423436_PM_at) differential expression (Jejunum, 12 hr): 10.36
Gsta4 (1416368_PM_at) differential expression (Jejunum, 12 hr): 2.58
Gstm1 (1416416_PM_x_at) differential expression (Jejunum, 12 hr): 4.15
Gstm2 (1416411_PM_at) differential expression (Jejunum, 12 hr): 2.04
Gstm4 (1424835_PM_at) differential expression (Jejunum, 12 hr): 5.03
Gstm6 (1422072_PM_a_at) differential expression (Jejunum, 12 hr): 1.95
Nqo1 (1423627_PM_at) differential expression (Jejunum, 12 hr): 2.30
